According to patent US8940742B2, “Heterocyclic compounds and uses thereof” (Infinity Pharmaceuticals, Inc., priority 2012, dated 2015):

target: RAJI p110 δ (Homo sapiens, UniProt O00329); test: RAJI p110 δ cellular assay (phospho-AKT); conditions: not given;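 also: potency based on lowered phosphorylated AKT in RAJI cells, as a readout of PI3K-δ dependent B-cell receptor signaling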
Sequence (O00329 whole entry): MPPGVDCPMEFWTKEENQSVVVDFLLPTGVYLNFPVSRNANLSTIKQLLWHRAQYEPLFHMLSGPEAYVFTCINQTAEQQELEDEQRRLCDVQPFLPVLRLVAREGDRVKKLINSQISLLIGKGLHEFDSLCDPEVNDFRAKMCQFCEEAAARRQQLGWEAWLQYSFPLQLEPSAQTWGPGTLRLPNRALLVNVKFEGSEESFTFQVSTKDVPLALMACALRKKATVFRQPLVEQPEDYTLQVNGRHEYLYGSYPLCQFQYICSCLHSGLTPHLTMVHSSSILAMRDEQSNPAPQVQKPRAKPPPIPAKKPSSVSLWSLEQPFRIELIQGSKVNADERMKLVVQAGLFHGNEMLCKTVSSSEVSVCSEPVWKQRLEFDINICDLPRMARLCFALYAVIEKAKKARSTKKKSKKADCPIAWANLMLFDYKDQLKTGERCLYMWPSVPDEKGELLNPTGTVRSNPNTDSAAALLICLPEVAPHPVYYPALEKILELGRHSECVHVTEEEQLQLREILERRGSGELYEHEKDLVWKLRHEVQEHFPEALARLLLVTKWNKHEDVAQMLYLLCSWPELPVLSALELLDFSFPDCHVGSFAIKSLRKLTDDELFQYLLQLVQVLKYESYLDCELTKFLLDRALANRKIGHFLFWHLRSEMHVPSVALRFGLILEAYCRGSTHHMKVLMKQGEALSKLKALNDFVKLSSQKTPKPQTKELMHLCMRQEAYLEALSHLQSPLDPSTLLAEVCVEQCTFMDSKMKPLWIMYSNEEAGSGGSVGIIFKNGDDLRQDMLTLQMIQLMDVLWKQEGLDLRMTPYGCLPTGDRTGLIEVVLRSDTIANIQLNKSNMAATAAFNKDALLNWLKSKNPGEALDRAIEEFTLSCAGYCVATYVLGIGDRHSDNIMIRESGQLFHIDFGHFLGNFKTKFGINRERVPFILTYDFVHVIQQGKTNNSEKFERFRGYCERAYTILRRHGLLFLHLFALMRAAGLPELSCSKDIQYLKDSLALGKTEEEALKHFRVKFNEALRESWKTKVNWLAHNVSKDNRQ
Sequence (P27986 whole entry partner): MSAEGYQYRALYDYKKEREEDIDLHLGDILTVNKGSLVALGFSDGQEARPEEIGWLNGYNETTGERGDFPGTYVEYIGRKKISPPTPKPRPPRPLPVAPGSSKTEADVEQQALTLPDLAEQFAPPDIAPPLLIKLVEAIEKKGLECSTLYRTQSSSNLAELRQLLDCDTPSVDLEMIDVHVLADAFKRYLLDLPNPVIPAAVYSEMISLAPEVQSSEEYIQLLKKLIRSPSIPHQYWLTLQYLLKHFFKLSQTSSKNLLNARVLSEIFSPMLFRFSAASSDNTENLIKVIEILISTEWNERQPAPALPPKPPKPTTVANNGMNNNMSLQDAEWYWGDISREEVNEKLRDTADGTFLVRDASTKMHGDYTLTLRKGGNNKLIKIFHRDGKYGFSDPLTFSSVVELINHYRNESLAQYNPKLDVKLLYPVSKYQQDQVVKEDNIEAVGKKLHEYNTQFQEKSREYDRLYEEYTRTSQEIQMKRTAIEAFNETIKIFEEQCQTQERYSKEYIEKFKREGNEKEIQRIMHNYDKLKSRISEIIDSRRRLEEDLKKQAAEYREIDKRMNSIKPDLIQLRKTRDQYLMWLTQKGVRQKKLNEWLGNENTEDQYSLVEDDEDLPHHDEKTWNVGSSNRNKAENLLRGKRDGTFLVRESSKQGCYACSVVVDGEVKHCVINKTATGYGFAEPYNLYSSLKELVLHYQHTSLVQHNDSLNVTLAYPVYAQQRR

SMILES	IC50
C[C@H](NC(=O)c1nc(-c2cccc(S(C)(=O)=O)c2)cnc1N)c1cc2cccc(Cl)c2c(=O)n1-c1ccccc1 [Compound 84]	100 to 1000 nM
C[C@H](NC(=O)c1cnc2cccnn12)c1cc2cccc(Cl)c2c(=O)n1-c1ccccc1 [Compound 13]	100 to 1000 nM
C[C@H](NC(=O)c1c(N)nn2cccnc12)c1cc2cccc(Cl)c2c(=O)n1-c1ccccc1 [Compound 70]	< 100 nM

Other lines, results leading:

IC50	SMILES
100 to 1000 nM	C[C@H](NC(=O)c1nc(-c2cnn(C)c2)cnc1N)c1cc2cccc(Cl)c2c(=O)n1-c1ccccc1 [Compound 109]
< 100 nM	C[C@H](NC(=O)c1c(N)nn2cccnc12)c1cc2cccc(C#CCNC(=O)[C@@H]3CCC(=O)O3)c2c(=O)n1-c1ccccc1 [Compound 157]
< 100 nM	C[C@H](NC(=O)c1cncc2cccnc12)c1cc2cccc(C(F)(F)F)c2c(=O)n1-c1ccccc1 [Compound 67]

target: T1, PI3K β (Homo sapiens, UniProt P42338); test: PI3-Kinase Promega ADP-Glo Max assay; type: biochemical; conditions: 40 nM kinase, 3 mM ATP, 500 uM diC8-PtdInsP
T1 construct: purchased Millipore
Description: (§1) Promega ADP-Glo Max assay kit (Cat. No. V7002) was utilized to determine IC50 values for α, β, δ and γ isoforms of human Class I PI3 kinases (Millipore). Samples of kinase (20 nM α or δ, 40 nM β or γ isoform) were incubated with compound for 15 minutes at room temperature in reaction buffer (15 mM HEPES pH 7.4, 20 mM NaCl, 1 mM EGTA, 0.02% Tween 20, 10 mM MgCl2, 0.2 mg/mL bovine-γ-globulins) followed by addition of ATP/diC8-PtdInsP mixture to give final concentrations of 3 mM ATP and 500 uM diC8-PtdInsP. Reactions were incubated at room temperature for 2 hours followed by addition of 25 uL of stop solution. After a 40-minute incubation at room temperature, 50 uL of Promega detection mix was added followed by incubation for 1 hour at room temperature. Plates were then read on Envision plate reader in luminescence mode. Data was converted to % inhibition using the following equation below:
(§2) [formula] where S is the sample luminescence, Pos is a positive control without added PI3K, Neg is the negative control without added compound. Data was then plotted as % inhibition vs compound concentration. Data fit to 4 parameter logistic equation to determine IC50 values: […]
(§3) Certain compounds provided herein were tested in PI3-Kinase Promega Assay using procedures as described above to determine IC50 values for α, β, δ and/or γ isoforms.

SMILES	IC50
C[C@H](NC(=O)c1nc(-c2cccc(S(C)(=O)=O)c2)cnc1N)c1cc2cccc(Cl)c2c(=O)n1-c1ccccc1 [Compound 84]	1000 to 10000 nM
C[C@H](NC(=O)c1cnc2cccnn12)c1cc2cccc(Cl)c2c(=O)n1-c1ccccc1 [Compound 13]	1000 to 10000 nM
CC(=O)N(C)Cc1cccc2cc([C@H](C)NC(=O)c3c(N)nn4cccnc34)n(-c3ccccc3)c(=O)c12 [Compound 232]	> 10000 nM
COc1cc(-c2csc3cc([C@H](C)NC(=O)c4c(N)nn5cccnc45)n(-c4ccccc4)c(=O)c23)ccn1 [Compound 213]	> 10000 nM
C[C@H](NC(=O)c1c(N)nn2cccnc12)c1cc2cccc(Cl)c2c(=O)n1-c1ccccc1 [Compound 70]	100 to 1000 nM
CNCCn1c([C@H](C)NC(=O)c2c(N)nn3cccnc23)cc2cccc(Cl)c2c1=O [Compound 241]	< 100 nM
C[C@H](NC(=O)c1c(N)nn2cccnc12)c1cc2cccc(Cl)c2c(=O)n1CCNCCO [Compound 243]	< 100 nM

Results, then the compound that gave them:

IC50	SMILES
1000 to 10000 nM	C[C@H](NC(=O)c1nc(-c2cnn(C)c2)cnc1N)c1cc2cccc(Cl)c2c(=O)n1-c1ccccc1 [Compound 109]
100 to 1000 nM	C[C@H](NC(=O)c1c(N)nn2cccnc12)c1cc2cccc(C#CCNC(=O)[C@@H]3CCC(=O)O3)c2c(=O)n1-c1ccccc1 [Compound 157]
> 10000 nM	CNCc1cccc2cc([C@H](C)NC(=O)c3c(N)nn4cccnc34)n(-c3ccccc3)c(=O)c12 [Compound 230]
1000 to 10000 nM	C[C@H](NC(=O)c1c(N)nn2cccnc12)c1cc2cccc(Cl)c2c(=O)n1CC(=O)N(C)C [Compound 296]
> 10000 nM	C[C@H](NC(=O)c1c(N)nn2cccnc12)c1cc2cccc(/C=C/c3ccccc3)c2c(=O)n1-c1ccccc1 [Compound 199]

target: T2, PI3K α (Homo sapiens, UniProt P42336); test: PI3-Kinase Promega ADP-Glo Max assay; type: biochemical; conditions: 20 nM kinase, 3 mM ATP, 500 uM diC8-PtdInsP
T2 construct: purchased Millipore
Description: as §1, §2, §3

SMILES	IC50
CC(=O)N(C)Cc1cccc2cc([C@H](C)NC(=O)c3c(N)nn4cccnc34)n(-c3ccccc3)c(=O)c12 [Compound 232]	> 10000 nM
COc1cc(-c2csc3cc([C@H](C)NC(=O)c4c(N)nn5cccnc45)n(-c4ccccc4)c(=O)c23)ccn1 [Compound 213]	> 10000 nM
C[C@H](NC(=O)c1c(N)nn2cccnc12)c1cc2cccc(Cl)c2c(=O)n1-c1ccccc1 [Compound 70]	1000 to 10000 nM
CNCCn1c([C@H](C)NC(=O)c2c(N)nn3cccnc23)cc2cccc(Cl)c2c1=O [Compound 241]	1000 to 10000 nM
C[C@H](NC(=O)c1c(N)nn2cccnc12)c1cc2cccc(Cl)c2c(=O)n1CCNCCO [Compound 243]	1000 to 10000 nM

Second part, the compound after the results:

IC50	SMILES
1000 to 10000 nM	C[C@H](NC(=O)c1nc(-c2cnn(C)c2)cnc1N)c1cc2cccc(Cl)c2c(=O)n1-c1ccccc1 [Compound 109]
100 to 1000 nM	C[C@H](NC(=O)c1c(N)nn2cccnc12)c1cc2cccc(C#CCNC(=O)[C@@H]3CCC(=O)O3)c2c(=O)n1-c1ccccc1 [Compound 157]
> 10000 nM	CNCc1cccc2cc([C@H](C)NC(=O)c3c(N)nn4cccnc34)n(-c3ccccc3)c(=O)c12 [Compound 230]
> 10000 nM	C[C@H](NC(=O)c1c(N)nn2cccnc12)c1cc2cccc(Cl)c2c(=O)n1CC(=O)N(C)C [Compound 296]
> 10000 nM	C[C@H](NC(=O)c1c(N)nn2cccnc12)c1cc2cccc(/C=C/c3ccccc3)c2c(=O)n1-c1ccccc1 [Compound 199]

target: T3, PI3K δ (Homo sapiens, UniProt O00329); test: PI3-Kinase Promega ADP-Glo Max assay; type: biochemical; conditions: 20 nM kinase, 3 mM ATP, 500 uM diC8-PtdInsP
T3 construct: purchased Millipore
Description: as §1, §2, §3

T3 sequence (O00329 whole entry): as the sequence (O00329 whole entry) above
T3 sequence (P27986 whole entry partner): as the sequence (P27986 whole entry partner) above

SMILES	IC50
C[C@H](NC(=O)c1nc(-c2cccc(S(C)(=O)=O)c2)cnc1N)c1cc2cccc(Cl)c2c(=O)n1-c1ccccc1 [Compound 84]	1000 to 10000 nM
C[C@H](NC(=O)c1cnc2cccnn12)c1cc2cccc(Cl)c2c(=O)n1-c1ccccc1 [Compound 13]	100 to 1000 nM
CC(=O)N(C)Cc1cccc2cc([C@H](C)NC(=O)c3c(N)nn4cccnc34)n(-c3ccccc3)c(=O)c12 [Compound 232]	< 100 nM
COc1cc(-c2csc3cc([C@H](C)NC(=O)c4c(N)nn5cccnc45)n(-c4ccccc4)c(=O)c23)ccn1 [Compound 213]	> 10000 nM
C[C@H](NC(=O)c1c(N)nn2cccnc12)c1cc2cccc(Cl)c2c(=O)n1-c1ccccc1 [Compound 70]	100 to 1000 nM
CNCCn1c([C@H](C)NC(=O)c2c(N)nn3cccnc23)cc2cccc(Cl)c2c1=O [Compound 241]	< 100 nM
C[C@H](NC(=O)c1c(N)nn2cccnc12)c1cc2cccc(Cl)c2c(=O)n1CCNCCO [Compound 243]	100 to 1000 nM

Results, then the compound that gave them:

IC50	SMILES
> 10000 nM	C[C@H](NC(=O)c1nc(-c2cnn(C)c2)cnc1N)c1cc2cccc(Cl)c2c(=O)n1-c1ccccc1 [Compound 109]
100 to 1000 nM	C[C@H](NC(=O)c1c(N)nn2cccnc12)c1cc2cccc(C#CCNC(=O)[C@@H]3CCC(=O)O3)c2c(=O)n1-c1ccccc1 [Compound 157]
1000 to 10000 nM	CNCc1cccc2cc([C@H](C)NC(=O)c3c(N)nn4cccnc34)n(-c3ccccc3)c(=O)c12 [Compound 230]
> 10000 nM	C[C@H](NC(=O)c1c(N)nn2cccnc12)c1cc2cccc(Cl)c2c(=O)n1CC(=O)N(C)C [Compound 296]
> 10000 nM	C[C@H](NC(=O)c1c(N)nn2cccnc12)c1cc2cccc(/C=C/c3ccccc3)c2c(=O)n1-c1ccccc1 [Compound 199]

target: T4, PI3K γ (Homo sapiens, UniProt P48736); test: PI3-Kinase Promega ADP-Glo Max assay; type: biochemical; conditions: 40 nM kinase, 3 mM ATP, 500 uM diC8-PtdInsP
T4 construct: purchased Millipore
Description: Promega ADP-Glo Max assay kit (Cat. No. V7002) was utilized to determine IC50 values for α, β, δ and γ isoforms of human Class I PI3 kinases (Millipore). […] Reactions were incubated at room temperature for 2 hours followed by addition of 25 uL of stop solution. After a 40-minute incubation at room temperature, 50 uL of Promega detection mix was added followed by incubation for 1 hour at room temperature. Plates were then read on Envision plate reader in luminescence mode. Data was converted to % inhibition using the following equation below:
[formula] where S is the sample luminescence, Pos is a positive control without added PI3K, Neg is the negative control without added compound. Data was then plotted as % inhibition vs compound concentration.
as §3

T4 sequence (P48736 whole entry): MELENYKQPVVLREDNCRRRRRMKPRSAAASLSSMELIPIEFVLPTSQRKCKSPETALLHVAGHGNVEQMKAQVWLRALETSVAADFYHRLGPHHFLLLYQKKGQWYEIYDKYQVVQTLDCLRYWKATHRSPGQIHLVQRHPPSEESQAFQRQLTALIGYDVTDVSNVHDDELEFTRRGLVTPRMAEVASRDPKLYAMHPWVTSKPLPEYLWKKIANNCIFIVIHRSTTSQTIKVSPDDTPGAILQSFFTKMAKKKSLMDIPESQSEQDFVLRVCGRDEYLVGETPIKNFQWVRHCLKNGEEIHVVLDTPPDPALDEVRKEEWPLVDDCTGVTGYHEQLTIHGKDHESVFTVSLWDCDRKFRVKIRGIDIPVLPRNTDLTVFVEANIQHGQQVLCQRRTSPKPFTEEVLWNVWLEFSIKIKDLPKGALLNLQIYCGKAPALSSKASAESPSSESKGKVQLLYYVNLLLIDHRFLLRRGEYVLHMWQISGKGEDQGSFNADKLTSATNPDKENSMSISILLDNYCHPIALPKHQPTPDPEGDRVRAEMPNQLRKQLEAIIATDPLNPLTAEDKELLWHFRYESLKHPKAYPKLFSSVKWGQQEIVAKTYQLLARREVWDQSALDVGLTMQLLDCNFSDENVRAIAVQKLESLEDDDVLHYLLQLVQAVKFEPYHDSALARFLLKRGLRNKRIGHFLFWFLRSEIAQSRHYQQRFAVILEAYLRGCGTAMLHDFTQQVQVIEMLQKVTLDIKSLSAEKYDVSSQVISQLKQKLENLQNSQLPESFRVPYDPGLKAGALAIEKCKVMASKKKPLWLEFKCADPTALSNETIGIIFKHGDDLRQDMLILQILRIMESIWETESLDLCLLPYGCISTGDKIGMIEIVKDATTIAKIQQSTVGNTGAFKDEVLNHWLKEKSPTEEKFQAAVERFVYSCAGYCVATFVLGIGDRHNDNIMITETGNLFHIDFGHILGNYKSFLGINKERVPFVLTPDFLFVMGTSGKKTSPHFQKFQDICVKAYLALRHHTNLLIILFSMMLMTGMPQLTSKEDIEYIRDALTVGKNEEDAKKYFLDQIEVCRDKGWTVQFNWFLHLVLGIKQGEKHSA

SMILES	IC50
C[C@H](NC(=O)c1nc(-c2cccc(S(C)(=O)=O)c2)cnc1N)c1cc2cccc(Cl)c2c(=O)n1-c1ccccc1 [Compound 84]	100 to 1000 nM
C[C@H](NC(=O)c1cnc2cccnn12)c1cc2cccc(Cl)c2c(=O)n1-c1ccccc1 [Compound 13]	1000 to 10000 nM
CC(=O)N(C)Cc1cccc2cc([C@H](C)NC(=O)c3c(N)nn4cccnc34)n(-c3ccccc3)c(=O)c12 [Compound 232]	> 10000 nM
COc1cc(-c2csc3cc([C@H](C)NC(=O)c4c(N)nn5cccnc45)n(-c4ccccc4)c(=O)c23)ccn1 [Compound 213]	> 10000 nM
CNCCn1c([C@H](C)NC(=O)c2c(N)nn3cccnc23)cc2cccc(Cl)c2c1=O [Compound 241]	1000 to 10000 nM
C[C@H](NC(=O)c1c(N)nn2cccnc12)c1cc2cccc(Cl)c2c(=O)n1CCNCCO [Compound 243]	1000 to 10000 nM

The remaining lines, values ahead:

IC50	SMILES
1000 to 10000 nM	C[C@H](NC(=O)c1nc(-c2cnn(C)c2)cnc1N)c1cc2cccc(Cl)c2c(=O)n1-c1ccccc1 [Compound 109]
< 100 nM	C[C@H](NC(=O)c1c(N)nn2cccnc12)c1cc2cccc(C#CCNC(=O)[C@@H]3CCC(=O)O3)c2c(=O)n1-c1ccccc1 [Compound 157]
> 10000 nM	CNCc1cccc2cc([C@H](C)NC(=O)c3c(N)nn4cccnc34)n(-c3ccccc3)c(=O)c12 [Compound 230]
> 10000 nM	C[C@H](NC(=O)c1c(N)nn2cccnc12)c1cc2cccc(Cl)c2c(=O)n1CC(=O)N(C)C [Compound 296]
> 10000 nM	C[C@H](NC(=O)c1c(N)nn2cccnc12)c1cc2cccc(/C=C/c3ccccc3)c2c(=O)n1-c1ccccc1 [Compound 199]

target: T5, Raw264.7 p110 γ (Mus musculus, UniProt Q9JHG7); test: Raw264.7 p110 γ cellular assay (phospho-AKT); type: cell-based; conditions: serum-starved RAW264.7 cells stimulated with C5a
T5 construct: reduction of phospho-AKT in stimulated RAW 264.7 cells; endogenous in cells; host or cells: RAW264.7 macrophages
Text: (b) PI3K-γ Selective Assay
Briefly, serum-starved PAW264.7 cells are stimulated with a known GPCR agonist C5a. […] Cells can be treated with test compounds prior to, simultaneously with, or subsequent to the stimulation by C5a. RAW 264.7 cells respond to the complement component fragment C5a through activation of the C5a receptor, and the C5a receptor activates macrophages and induces cell migration.

T5 sequence (Q9JHG7 whole entry): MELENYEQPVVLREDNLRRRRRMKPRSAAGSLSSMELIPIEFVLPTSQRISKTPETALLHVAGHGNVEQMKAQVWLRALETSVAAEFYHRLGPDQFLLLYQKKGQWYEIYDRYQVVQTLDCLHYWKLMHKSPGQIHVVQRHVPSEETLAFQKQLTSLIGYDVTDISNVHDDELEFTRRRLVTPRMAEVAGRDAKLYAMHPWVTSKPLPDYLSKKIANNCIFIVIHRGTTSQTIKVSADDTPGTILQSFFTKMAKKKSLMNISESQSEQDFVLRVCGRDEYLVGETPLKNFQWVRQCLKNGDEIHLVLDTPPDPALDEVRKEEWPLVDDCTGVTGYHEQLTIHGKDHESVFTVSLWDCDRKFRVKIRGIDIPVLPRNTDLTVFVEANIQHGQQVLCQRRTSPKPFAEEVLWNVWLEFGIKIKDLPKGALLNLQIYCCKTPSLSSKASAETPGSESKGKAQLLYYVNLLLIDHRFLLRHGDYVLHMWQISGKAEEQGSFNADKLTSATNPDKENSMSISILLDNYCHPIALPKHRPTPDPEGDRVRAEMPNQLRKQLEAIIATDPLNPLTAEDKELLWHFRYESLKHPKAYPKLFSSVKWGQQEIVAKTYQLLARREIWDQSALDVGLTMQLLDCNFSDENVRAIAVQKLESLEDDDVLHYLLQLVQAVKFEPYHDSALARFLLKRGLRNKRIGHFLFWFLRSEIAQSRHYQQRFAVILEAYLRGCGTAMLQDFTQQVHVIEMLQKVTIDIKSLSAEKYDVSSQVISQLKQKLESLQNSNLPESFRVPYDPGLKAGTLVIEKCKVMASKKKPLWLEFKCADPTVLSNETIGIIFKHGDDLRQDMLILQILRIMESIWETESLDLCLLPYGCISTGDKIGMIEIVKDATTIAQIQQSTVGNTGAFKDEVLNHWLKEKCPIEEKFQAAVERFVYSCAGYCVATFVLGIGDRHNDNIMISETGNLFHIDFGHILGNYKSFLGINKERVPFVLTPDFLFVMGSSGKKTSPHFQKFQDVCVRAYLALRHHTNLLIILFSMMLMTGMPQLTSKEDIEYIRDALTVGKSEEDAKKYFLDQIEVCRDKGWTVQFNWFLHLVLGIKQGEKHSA

SMILES	IC50
C[C@H](NC(=O)c1nc(-c2cccc(S(C)(=O)=O)c2)cnc1N)c1cc2cccc(Cl)c2c(=O)n1-c1ccccc1 [Compound 84]	< 100 nM
C[C@H](NC(=O)c1cnc2cccnn12)c1cc2cccc(Cl)c2c(=O)n1-c1ccccc1 [Compound 13]	100 to 1000 nM

Continued, values first:

IC50	SMILES
> 10000 nM	C[C@H](NC(=O)c1cnccn1)c1cc2cccc(Cl)c2c(=O)n1-c1ccccc1 [Compound 14]
< 100 nM	C[C@H](NC(=O)c1nc(-c2cnn(C)c2)cnc1N)c1cc2cccc(Cl)c2c(=O)n1-c1ccccc1 [Compound 109]
< 100 nM	C[C@H](NC(=O)c1c(N)nn2cccnc12)c1cc2cccc(C#CCNC(=O)[C@@H]3CCC(=O)O3)c2c(=O)n1-c1ccccc1 [Compound 157]
1000 to 10000 nM	C[C@H](NC(=O)c1cccnc1N)c1cc2cccc(Cl)c2c(=O)n1-c1ccccc1 [Compound 3]
> 10000 nM	C[C@H](NC(=O)c1nc(Br)cnc1N)c1cc2cccc(Cl)c2c(=O)n1-c1ccccc1 [Compound 15]
< 100 nM	C[C@H](NC(=O)c1cncc2cccnc12)c1cc2cccc(C(F)(F)F)c2c(=O)n1-c1ccccc1 [Compound 67]
